Experimental data: patent publication US8314094B2, “Benzoxazinone derivative” (MSD K.K, priority 2007, dated 2012)

What follows are compounds tested against T1, human LCE (Homo sapiens, UniProt Q9H5J4) (assay: LCE enzymatic activity inhibition test). Details: human LCE enzyme, palmitoyl-CoA and [14C]-malonyl-CoA as substrates, pH 6.5, 37° C. for 90 minutes.
T1 sequence (Q9H5J4 1-265): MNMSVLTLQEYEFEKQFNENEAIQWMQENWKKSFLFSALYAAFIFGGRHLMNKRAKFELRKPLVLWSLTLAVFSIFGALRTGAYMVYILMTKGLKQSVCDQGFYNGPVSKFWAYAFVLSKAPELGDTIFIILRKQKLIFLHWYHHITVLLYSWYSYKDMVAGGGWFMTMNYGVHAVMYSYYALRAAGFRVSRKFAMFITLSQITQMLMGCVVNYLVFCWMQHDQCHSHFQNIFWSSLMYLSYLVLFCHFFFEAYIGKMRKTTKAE
Assay type: biochemical
Method: An LCE enzymatic activity inhibition test was carried out by a modified method of Moon (J. Biol. Chem., Vol. 276, pp. 45358-45366, (2001)) et al. That is, the diluted test compound was added to a 96-well assay plate (Corning, 96-Well Assay Block) in an amount of 1.0 μL per well, and thereafter, 50 μL of a phosphate buffer solution (a 100 mM potassium phosphate buffer solution (pH 6.5)), 25 μL of a substrate solution (a 100 mM potassium phosphate buffer solution (pH 6.5), 4.0 μM rotenone, 80 μM fatty acid-free bovine serum albumin, 160 μM palmitoyl-CoA, 80 μM malonyl-CoA, 3.5 μM [^14C]-malonyl-CoA (1.92 GBq/mmol, manufactured by Amersham, Inc.)) was added to each well, and further, 25 μL of an enzyme solution (a 100 mM potassium phosphate buffer solution (pH 6.5), 100 μg/mL human LCE) was added thereto. Then, the upper part of the plate was hermetically closed with a seal member, and the plate was incubated at 37° C. for 90 minutes while gently shaking and stirring. Thereafter, to each well, 100 μL of 5 N HCl was added and the assay plate was stirred at room temperature for 5 minutes, whereby the enzymatic reaction was stopped and also acyl-CoA was hydrolyzed. Thereafter, the enzymatic reaction solution in each well was adsorbed to each well of a 96-well GF/C filter plate (PerkinElmer, Unifilter 96GF/C) through which water had been passed in advance, and then, each well was washed with water to remove unadsorbed malonyl-CoA and the GF/C filter plate was dried at 50° C. for 60 minutes. Thereafter, to each well, 30 μL of a scintillator (PerkinElmer, Microscinti 0) was added and the upper part of the plate was sealed, and the radioactivity of the fixed [^14C] was measured using a microplate scintillation counter (PerkinElmer, Top Count) from which the enzymatic activity was determined The human LCE enzyme inhibitory activity of the test compound was calculated using the radioactivity obtained from a well to which DMSO containing no test compound is added as a control.

Compound | IC50 [nM]
O=C1Nc2ccc(Cl)cc2C(CCNC(=O)c2ccc(F)cc2)(C(F)(F)F)O1 (single isomer, unassigned) [Example 32, N-{2-[(4R*)-6-chloro-2-oxo-4-(trifluoromethyl)-1,4-dihydro-2H-3,1-benzoxazin-4-yl]ethyl}-4-fluorobenzamide] | 22
O=C1Nc2ccc(Cl)cc2C(CCCNC(=O)c2ccc(F)cc2)(C(F)(F)F)O1 (single isomer, unassigned) [Example 33, N-{3-[(4R*)-6-chloro-2-oxo-4-(trifluoromethyl)-1,4-dihydro-2H-3,1-benzoxazin-4-yl]propyl}-4-fluorobenzamide] | 17
O=C1Nc2ccc(Cl)cc2C(CCCNS(=O)(=O)c2ccccn2)(C(F)(F)F)O1 (single isomer, unassigned) [Example 119, N-{3-[(4R*)-6-chloro-2-oxo-4-(trifluoromethyl)-1,4-dihydro-2H-3,1-benzoxazin-4-yl]propyl}pyridine-2-sulfonamide] | 128
O=C1Nc2ccc(Cl)cc2C(CCNS(=O)(=O)c2ccccn2)(C(F)(F)F)O1 (single isomer, unassigned) [Example 120, N-{2-[(4R*)-6-chloro-2-oxo-4-(trifluoromethyl)-1,4-dihydro-2H-3,1-benzoxazin-4-yl]ethyl}pyridine-2-sulfonamide] | 5.4
Cn1cc(-c2ccc3c(c2)C(CNC(=O)c2ccc(F)cc2)(C(F)(F)F)OC(=O)N3)cn1 (single isomer, unassigned) [Example 133, (4S*)-4-fluoro-N-{[6-(1-methyl-1H-pyrazol-4-yl)-2-oxo-4-(trifluoromethyl)-1,4-dihydro-2H-3,1-benzoxazin-4-yl]methyl}benzamide] | 119
O=C1Nc2ccc(-c3cc[nH]n3)cc2C(CNS(=O)(=O)c2ccc(F)cc2)(C(F)(F)F)O1 (single isomer, unassigned) [Example 150, 4-fluoro-N-{[(4S*)-2-oxo-6-(1H-pyrazol-3-yl)-4-(trifluoromethyl)-1,4-dihydro-2H-3,1-benzoxazin-4-yl]methyl}benzenesulfonamide] | 17
O=C1Nc2ccc(-c3cc[nH]n3)cc2C(CNS(=O)(=O)c2ccccn2)(C(F)(F)F)O1 (single isomer, unassigned) [Example 151, N-{[(4S*)-2-oxo-6-(1H-pyrazol-3-yl)-4-(trifluoromethyl)-1,4-dihydro-2H-3,1-benzoxazin-4-yl]methyl}pyridine-2-sulfonamide] | 16
O=C1Nc2ccc(-c3ccn[nH]3)cc2C(CNC(=O)c2ccc(F)cc2)(C(F)(F)F)N1 (single isomer, unassigned) [Example 182, 4-fluoro-N-{[(4S*)-2-oxo-6-(1H-pyrazol-5-yl)-4-(trifluoromethyl)-1,2,3,4-tetrahydroquinazolin-4-yl]methyl}benzamide] | 6.6
O=C1Nc2ccc(Cl)cc2C(CNC(=O)c2ccc(F)cc2)(C(F)(F)F)N1 (single isomer, unassigned) [Example 187, N-{[(4S*)-6-chloro-2-oxo-4-(trifluoromethyl)-1,2,3,4-tetrahydroquinazolin-4-yl]methyl}4-fluorobenzamide] | 45
O=C1Nc2ccc(-c3ccco3)cc2C(CNC(=O)c2ccc(F)cc2)(C(F)(F)F)O1 (stereo not shown) [Example 146, 4-fluoro-N-{[6-(2-furyl)-2-oxo-4-(trifluoromethyl)-1,4-dihydro-2H-3,1-benzoxazin-4-yl]methyl}benzamide] | 14
O=C1Nc2ccc(-c3cccs3)cc2C(CNC(=O)c2ccc(F)cc2)(C(F)(F)F)O1 (stereo not shown) [Example 147, 4-fluoro-N-{[2-oxo-6-(2-thienyl)-4-(trifluoromethyl)-1,4-dihydro-2H-3,1-benzoxazin-4-yl]methyl}benzamide] | 13
CN1CCN(c2ccc3c(c2)C(CNC(=O)c2ccc(F)cc2)(C(F)(F)F)OC(=O)N3)C1=O (stereo not shown) [Example 174, 4-fluoro-N-{[6-(3-methyl-2-oxazolidin-1-yl)-2-oxo-4-(trifluoromethyl)-1,4-dihydro-2H-3,1-benzoxazin-4-yl]methyl}benzamide] | 5.3
Cc1ccn(-c2ccc3c(c2)C(CNC(=O)c2ccc(F)cc2)(C(F)(F)F)OC(=O)N3)n1 (stereo not shown) [Example 178, 4-fluoro-N-{[6-(3-methyl-1H-pyrazol-1-yl)-2-oxo-4-(trifluoromethyl)-1,4-dihydro-2H-3,1-benzoxazin-4-yl]methyl}benzamide] | 7.3
